In ChEMBL document CHEMBL3526086, “Identification of the oxidative and conjugative enzymes involved in the biotransformation of brivanib” (Drug Metab Dispos, 2012):

What was measured:
Liver cytosol [1] = experiment: Drug level in human liver cytosol treated with 2 uM [14C](R)-4-fluoro-5-(6-(2-hydroxypropoxy)-5-methylpyrrolo[1,2-f][1,2,4]triazin-4-yloxy)-1H-indole-2-carboxylic acid for 60 mins by LC/MS analysis in presence of PAPS; assay type: ADME, tissue-based
Liver cytosol [2] = experiment: Drug level in human liver cytosol treated with 2 uM [14C](R)-1-(4-(4-fluoro-2-(hydroxymethyl)-1H-indol-5-yloxy)-5-methylpyrrolo[1,2-f][1,2,4]triazin-6-yloxy)propan-2-ol for 60 mins by LC/MS analysis in presence of PAPS; assay type: ADME, tissue-based
Liver microsome [3] = experiment: Drug level in human liver microsomes treated with 2 uM [14C](R)-1-(4-(4-fluoro-2-methyl-1H-indol-5-yloxy)-5-methylpyrrolo[1,2-f][1,2,4]triazin-6-yloxy)propane-2-sulfonic acid for 60 mins by LC/MS analysis in presence of NADPH; assay type: ADME
Liver cytosol [4] = experiment: Drug metabolism in human liver cytosol assessed as (R)-4-fluoro-5-(5-methyl-6-(2-sulfopropoxy)pyrrolo[1,2-f][1,2,4]triazin-4-yloxy)-1H-indole-2-carboxylic acid formation at 2 uM for 60 mins by LC/MS analysis in presence of PAPS; assay type: ADME
Liver cytosol [5] = experiment: Drug metabolism in human liver cytosol assessed as sulfate conjugate formation at 2 uM for 60 mins in absence of PAPS by LC/MS analysis; assay type: ADME, tissue-based; conditions: 1 h
Liver microsome [6] = experiment: Drug metabolism in human liver microsomes assessed as (R)-4-fluoro-5-(5-methyl-6-(2-sulfopropoxy)pyrrolo[1,2-f][1,2,4]triazin-4-yloxy)-1H-indole-2-carboxylic acid at 2 uM for 60 mins by LC/MS analysis in presence of NADPH; assay type: ADME
Liver microsome [7] = experiment: Drug metabolism in human liver microsomes assessed as compound oxidation at 2 uM for 60 mins by LC/MS analysis in absence of NADPH; assay type: ADME; conditions: 1 h
Liver microsome [8] = experiment: Drug metabolism in human liver microsomes assessed as (R)-1-(4-(4-fluoro-2-(hydroxymethyl)-1H-indol-5-yloxy)-5-methylpyrrolo[1,2-f][1,2,4]triazin-6-yloxy)propane-2-sulfonic acid at 2 uM for 60 mins by LC/MS analysis in presence of NADPH; assay type: ADME
Liver microsome [9] = experiment: Drug level in human liver microsomes assessed as compound formation treated with 2 uM [14C]brivanib alaninate for 60 mins by LC/MS analysis in presence of NADPH; assay type: ADME; conditions: 1 h
Liver cytosol [10] = experiment: Drug level in human liver cytosol treated with 2 uM [14C](R)-1-(4-(4-fluoro-2-(hydroxymethyl)-1H-indol-5-yloxy)-5-methylpyrrolo[1,2-f][1,2,4]triazin-6-yloxy)propan-2-ol for 60 mins by LC/MS analysis in presence of NADPH; assay type: ADME, tissue-based
Liver cytosol [11] = experiment: Drug level in human liver cytosol treated with 2 uM [14C](R)-1-(4-(4-fluoro-2-(hydroxymethyl)-1H-indol-5-yloxy)-5-methylpyrrolo[1,2-f][1,2,4]triazin-6-yloxy)propan-2-ol for 60 mins by LC/MS analysis; assay type: ADME, tissue-based
Liver microsome [12] = experiment: Drug level in human liver microsomes treated with 2 and 20 uM brivanib for 30 mins by LC/MS analysis in presence of 2 uM CYP2A6 inhibitor tranylcypromine; assay type: ADME; conditions: 0.5 h
Cytochrome P450 2C19 = Cytochrome P450 2C19 (Homo sapiens, UniProt P33261); experiment: Activity of human CYP2C19 assessed as compound formation treated with 2 and 20 uM brivanib for 20 mins by LC/MS analysis in presence of NADPH; assay type: ADME
Cytochrome P450 3A5 = Cytochrome P450 3A5 (Homo sapiens, UniProt P20815); experiment: Activity of human CYP3A5 assessed as compound formation treated with 2 and 20 uM brivanib for 20 mins by LC/MS analysis in presence of NADPH; assay type: ADME
Cytochrome P450 1B1 = Cytochrome P450 1B1 (Homo sapiens, UniProt Q16678); experiment: Activity of human CYP1B1 assessed as compound formation treated with 2 and 20 uM brivanib for 20 mins by LC/MS analysis in presence of NADPH; assay type: ADME
Cytochrome P450 2D6 = Cytochrome P450 2D6 (Homo sapiens, UniProt P10635); experiment: Activity of human CYP2D6 assessed as compound formation treated with 2 and 20 uM brivanib for 20 mins by LC/MS analysis in presence of NADPH; assay type: ADME
Cytochrome P450 2A6 = molecular target: T1, Cytochrome P450 2A6 (Homo sapiens, UniProt P11509); experiment: Activity of human CYP2A6 assessed as compound formation treated with 2 and 20 uM brivanib for 20 mins by LC/MS analysis in presence of NADPH; assay type: ADME
T1 sequence (P11509 whole entry): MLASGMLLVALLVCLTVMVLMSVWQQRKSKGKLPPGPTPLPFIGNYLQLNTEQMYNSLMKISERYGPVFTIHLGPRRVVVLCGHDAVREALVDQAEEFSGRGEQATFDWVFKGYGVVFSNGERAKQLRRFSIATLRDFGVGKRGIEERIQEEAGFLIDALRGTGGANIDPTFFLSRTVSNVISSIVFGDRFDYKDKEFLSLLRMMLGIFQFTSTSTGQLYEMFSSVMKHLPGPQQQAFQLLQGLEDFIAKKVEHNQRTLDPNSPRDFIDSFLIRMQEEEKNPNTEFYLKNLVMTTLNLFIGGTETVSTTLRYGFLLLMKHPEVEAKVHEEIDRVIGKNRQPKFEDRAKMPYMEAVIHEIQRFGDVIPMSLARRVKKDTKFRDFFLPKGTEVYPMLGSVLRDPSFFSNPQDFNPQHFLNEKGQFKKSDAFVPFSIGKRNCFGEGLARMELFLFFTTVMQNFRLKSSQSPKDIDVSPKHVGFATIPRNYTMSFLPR

Liver microsome [13] = experiment: Drug level in human liver microsomes treated with 2 and 20 uM brivanib for 30 mins by LC/MS analysis in presence of 50 uM CYP2B6 inhibitor orphenadrine; assay type: ADME; conditions: 0.5 h
Cytochrome P450 1A2 = molecular target: T2, Cytochrome P450 1A2 (Homo sapiens, UniProt P05177); experiment: Activity of human CYP1A2 assessed as compound formation treated with 2 and 20 uM brivanib for 20 mins by LC/MS analysis in presence of NADPH; assay type: ADME
T2 sequence (P05177 whole entry): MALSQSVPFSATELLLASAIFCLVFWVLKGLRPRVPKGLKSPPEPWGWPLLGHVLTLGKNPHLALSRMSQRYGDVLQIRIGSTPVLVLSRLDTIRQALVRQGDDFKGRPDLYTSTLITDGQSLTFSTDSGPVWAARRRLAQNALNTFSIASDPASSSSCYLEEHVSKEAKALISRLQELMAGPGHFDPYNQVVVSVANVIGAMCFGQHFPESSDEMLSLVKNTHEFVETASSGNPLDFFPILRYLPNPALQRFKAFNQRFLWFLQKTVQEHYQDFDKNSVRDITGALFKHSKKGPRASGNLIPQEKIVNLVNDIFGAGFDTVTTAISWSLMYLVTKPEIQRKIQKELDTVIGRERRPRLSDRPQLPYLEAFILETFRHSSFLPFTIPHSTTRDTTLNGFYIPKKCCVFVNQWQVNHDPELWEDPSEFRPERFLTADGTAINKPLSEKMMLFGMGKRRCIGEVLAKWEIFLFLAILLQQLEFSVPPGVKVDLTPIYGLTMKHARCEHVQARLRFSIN

Cytochrome P450 2C9 = Cytochrome P450 2C9 (Homo sapiens, UniProt P11712); experiment: Activity of human CYP2C9 assessed as compound formation treated with 2 and 20 uM brivanib for 20 mins by LC/MS analysis in presence of NADPH; assay type: ADME
Liver microsome [14] = experiment: Drug level in human liver microsomes treated with 2 and 20 uM brivanib for 30 mins by LC/MS analysis in presence of 1 uM CYP2D6 inhibitor quinidine; assay type: ADME; conditions: 0.5 h
Cytochrome P450 3A4 = Cytochrome P450 3A4 (Homo sapiens, UniProt P08684); experiment: Activity of human CYP3A4 assessed as compound formation treated with 2 and 20 uM brivanib for 20 mins by LC/MS analysis in presence of NADPH; assay type: ADME
Cytochrome P450 1A1 = Cytochrome P450 1A1 (Homo sapiens, UniProt P04798); experiment: Activity of human CYP1A1 assessed as compound formation treated with 2 and 20 uM brivanib for 20 mins by LC/MS analysis in presence of NADPH; assay type: ADME
Liver microsome [15] = experiment: Drug level in human liver microsomes treated with 2 and 20 uM brivanib for 30 mins by LC/MS analysis in presence of 10 uM CYP2C9 inhibitor sulfaphenazole; assay type: ADME; conditions: 0.5 h
Cytochrome P450 2C8 = molecular target: T3, Cytochrome P450 2C8 (Homo sapiens, UniProt P10632); experiment: Activity of human CYP2C8 assessed as compound formation treated with 2 and 20 uM brivanib for 20 mins by LC/MS analysis in presence of NADPH; assay type: ADME
T3 sequence (P10632 whole entry): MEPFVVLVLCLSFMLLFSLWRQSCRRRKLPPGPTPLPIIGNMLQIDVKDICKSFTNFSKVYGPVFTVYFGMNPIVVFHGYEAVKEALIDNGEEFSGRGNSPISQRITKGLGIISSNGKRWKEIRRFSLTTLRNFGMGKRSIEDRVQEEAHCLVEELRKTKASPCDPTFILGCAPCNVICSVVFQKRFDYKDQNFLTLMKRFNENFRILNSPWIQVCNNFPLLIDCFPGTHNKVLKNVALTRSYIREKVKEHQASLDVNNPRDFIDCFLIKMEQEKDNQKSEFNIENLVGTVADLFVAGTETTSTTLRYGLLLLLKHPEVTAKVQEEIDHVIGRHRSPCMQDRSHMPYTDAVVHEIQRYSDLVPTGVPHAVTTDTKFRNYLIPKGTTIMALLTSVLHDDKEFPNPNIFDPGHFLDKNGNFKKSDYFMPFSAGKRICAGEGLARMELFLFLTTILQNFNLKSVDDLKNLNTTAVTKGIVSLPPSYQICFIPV

Liver microsome [16] = experiment: Drug level in human liver microsomes treated with 2 and 20 uM brivanib for 30 mins by LC/MS analysis in presence of 3 uM CYP2C8 inhibitor montekulast; assay type: ADME; conditions: 0.5 h
Liver microsome [17] = experiment: Drug level in human liver microsomes treated with 2 and 20 uM brivanib for 30 mins by LC/MS analysis in presence of 50 uM CYP2E1 inhibitor diethyldithiocarbamate; assay type: ADME; conditions: 0.5 h
Cytochrome P450 2B6 = molecular target: T4, Cytochrome P450 2B6 (Homo sapiens, UniProt P20813); experiment: Activity of human CYP2B6 assessed as compound formation treated with 2 and 20 uM brivanib for 20 mins by LC/MS analysis in presence of NADPH; assay type: ADME
T4 sequence (P20813 whole entry): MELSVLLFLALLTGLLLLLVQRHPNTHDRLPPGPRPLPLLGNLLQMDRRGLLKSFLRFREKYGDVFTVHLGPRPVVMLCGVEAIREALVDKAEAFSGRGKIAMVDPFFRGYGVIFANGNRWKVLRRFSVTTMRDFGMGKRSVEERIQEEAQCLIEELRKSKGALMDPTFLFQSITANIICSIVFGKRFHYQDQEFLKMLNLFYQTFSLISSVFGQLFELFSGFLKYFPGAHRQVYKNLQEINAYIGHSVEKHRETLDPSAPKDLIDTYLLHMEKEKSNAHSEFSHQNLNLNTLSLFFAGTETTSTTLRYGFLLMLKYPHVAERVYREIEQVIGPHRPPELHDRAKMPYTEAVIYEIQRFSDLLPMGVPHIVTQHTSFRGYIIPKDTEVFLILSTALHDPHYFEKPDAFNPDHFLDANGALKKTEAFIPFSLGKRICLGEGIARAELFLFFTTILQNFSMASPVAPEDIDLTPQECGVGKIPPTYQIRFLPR

[18] = substrate: Cc1cc2c(F)c(Oc3ncnn4cc(OC[C@@H](C)O)c(C)c34)ccc2[nH]1; experiment: Activity of human CYP1A2 assessed as enzyme-mediated (R)-1-(4-(4-fluoro-2-(hydroxymethyl)-1H-indol-5-yloxy)-5-methylpyrrolo[1,2-f][1,2,4]triazin-6-yloxy)propan-2-ol formation in presence of NADPH; assay type: ADME

Chain of Cytochrome P450 3A5 (P20815 whole entry): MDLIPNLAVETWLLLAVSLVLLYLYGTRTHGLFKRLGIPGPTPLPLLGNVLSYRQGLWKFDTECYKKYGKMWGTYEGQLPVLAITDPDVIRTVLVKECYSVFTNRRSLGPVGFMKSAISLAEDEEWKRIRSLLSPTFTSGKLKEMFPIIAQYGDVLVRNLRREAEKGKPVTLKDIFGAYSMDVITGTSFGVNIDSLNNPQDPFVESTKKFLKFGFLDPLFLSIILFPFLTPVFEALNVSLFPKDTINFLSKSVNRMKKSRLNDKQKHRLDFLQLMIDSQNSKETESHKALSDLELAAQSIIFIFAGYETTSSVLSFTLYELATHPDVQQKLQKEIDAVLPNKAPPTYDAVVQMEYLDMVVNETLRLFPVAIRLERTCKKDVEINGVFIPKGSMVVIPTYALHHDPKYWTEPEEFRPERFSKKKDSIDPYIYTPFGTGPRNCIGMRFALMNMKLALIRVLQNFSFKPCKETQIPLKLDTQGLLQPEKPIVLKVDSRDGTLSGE
Chain of Cytochrome P450 2C9 (P11712 whole entry): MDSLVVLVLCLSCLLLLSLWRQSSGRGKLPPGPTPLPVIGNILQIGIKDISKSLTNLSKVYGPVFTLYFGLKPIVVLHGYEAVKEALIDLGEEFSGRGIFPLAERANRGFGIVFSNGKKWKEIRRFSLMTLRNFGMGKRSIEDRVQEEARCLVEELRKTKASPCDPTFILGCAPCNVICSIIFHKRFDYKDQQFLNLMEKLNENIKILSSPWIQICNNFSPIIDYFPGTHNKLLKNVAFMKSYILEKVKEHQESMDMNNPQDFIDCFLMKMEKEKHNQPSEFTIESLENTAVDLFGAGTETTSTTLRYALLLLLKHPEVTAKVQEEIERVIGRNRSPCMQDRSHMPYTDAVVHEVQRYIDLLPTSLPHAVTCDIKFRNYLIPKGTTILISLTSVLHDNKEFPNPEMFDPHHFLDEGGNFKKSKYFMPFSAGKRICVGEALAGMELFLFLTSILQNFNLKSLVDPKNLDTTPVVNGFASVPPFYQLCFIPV
Chain of Cytochrome P450 3A4 (P08684 whole entry): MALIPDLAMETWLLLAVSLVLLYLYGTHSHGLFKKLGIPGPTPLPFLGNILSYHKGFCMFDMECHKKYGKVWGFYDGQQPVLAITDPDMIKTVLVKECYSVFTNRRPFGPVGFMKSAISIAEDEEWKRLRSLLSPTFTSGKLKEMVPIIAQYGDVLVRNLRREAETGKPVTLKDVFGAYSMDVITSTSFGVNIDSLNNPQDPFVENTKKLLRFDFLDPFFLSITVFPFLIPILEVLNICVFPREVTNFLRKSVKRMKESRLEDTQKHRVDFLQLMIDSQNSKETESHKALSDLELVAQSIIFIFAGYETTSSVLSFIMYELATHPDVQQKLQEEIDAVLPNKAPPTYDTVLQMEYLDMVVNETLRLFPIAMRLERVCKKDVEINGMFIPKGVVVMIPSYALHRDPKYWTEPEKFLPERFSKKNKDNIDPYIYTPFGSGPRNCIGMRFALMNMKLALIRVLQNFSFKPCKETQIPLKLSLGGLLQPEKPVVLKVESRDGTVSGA
Chain of Cytochrome P450 2D6 (P10635 whole entry): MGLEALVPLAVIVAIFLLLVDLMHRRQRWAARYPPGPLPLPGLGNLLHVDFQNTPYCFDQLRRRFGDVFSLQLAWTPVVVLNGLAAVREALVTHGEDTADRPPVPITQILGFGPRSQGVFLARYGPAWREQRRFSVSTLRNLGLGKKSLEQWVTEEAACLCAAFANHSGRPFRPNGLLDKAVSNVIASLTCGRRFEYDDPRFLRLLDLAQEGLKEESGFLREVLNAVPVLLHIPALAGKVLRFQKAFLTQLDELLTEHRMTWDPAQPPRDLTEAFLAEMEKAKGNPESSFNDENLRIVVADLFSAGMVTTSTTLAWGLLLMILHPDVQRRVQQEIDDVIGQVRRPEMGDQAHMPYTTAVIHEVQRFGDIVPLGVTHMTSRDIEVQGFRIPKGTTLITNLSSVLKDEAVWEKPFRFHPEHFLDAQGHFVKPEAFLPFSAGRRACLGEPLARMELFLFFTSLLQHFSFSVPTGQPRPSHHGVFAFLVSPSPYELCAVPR
Chain of Cytochrome P450 1B1 (Q16678 whole entry): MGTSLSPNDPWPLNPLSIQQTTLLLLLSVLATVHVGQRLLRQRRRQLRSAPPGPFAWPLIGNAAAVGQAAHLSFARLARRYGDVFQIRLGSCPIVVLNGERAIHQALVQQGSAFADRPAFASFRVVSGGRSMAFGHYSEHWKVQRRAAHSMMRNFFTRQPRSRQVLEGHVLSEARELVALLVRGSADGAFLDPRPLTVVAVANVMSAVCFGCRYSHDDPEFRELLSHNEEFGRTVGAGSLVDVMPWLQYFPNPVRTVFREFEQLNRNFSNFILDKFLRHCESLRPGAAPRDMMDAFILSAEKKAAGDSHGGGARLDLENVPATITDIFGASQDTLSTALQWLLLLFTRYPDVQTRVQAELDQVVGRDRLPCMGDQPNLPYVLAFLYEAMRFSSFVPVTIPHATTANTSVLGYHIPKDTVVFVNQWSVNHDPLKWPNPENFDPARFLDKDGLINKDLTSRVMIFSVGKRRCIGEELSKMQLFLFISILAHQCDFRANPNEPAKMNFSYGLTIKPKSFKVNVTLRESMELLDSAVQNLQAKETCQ
Chain of Cytochrome P450 1A1 (P04798 whole entry): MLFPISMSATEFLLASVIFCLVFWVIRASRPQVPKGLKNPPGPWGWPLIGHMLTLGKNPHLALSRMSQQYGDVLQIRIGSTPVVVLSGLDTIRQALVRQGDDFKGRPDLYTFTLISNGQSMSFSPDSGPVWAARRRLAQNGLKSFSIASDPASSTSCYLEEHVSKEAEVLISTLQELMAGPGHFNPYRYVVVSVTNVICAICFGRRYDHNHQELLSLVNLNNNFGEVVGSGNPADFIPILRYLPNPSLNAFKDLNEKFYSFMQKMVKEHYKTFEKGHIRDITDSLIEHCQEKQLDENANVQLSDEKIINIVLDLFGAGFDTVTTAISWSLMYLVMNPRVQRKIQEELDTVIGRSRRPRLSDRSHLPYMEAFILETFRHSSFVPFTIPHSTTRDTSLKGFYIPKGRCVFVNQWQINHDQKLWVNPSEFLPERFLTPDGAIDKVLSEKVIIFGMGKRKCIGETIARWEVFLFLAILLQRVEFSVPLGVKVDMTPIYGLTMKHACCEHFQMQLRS
Chain of Cytochrome P450 2C19 (P33261 whole entry): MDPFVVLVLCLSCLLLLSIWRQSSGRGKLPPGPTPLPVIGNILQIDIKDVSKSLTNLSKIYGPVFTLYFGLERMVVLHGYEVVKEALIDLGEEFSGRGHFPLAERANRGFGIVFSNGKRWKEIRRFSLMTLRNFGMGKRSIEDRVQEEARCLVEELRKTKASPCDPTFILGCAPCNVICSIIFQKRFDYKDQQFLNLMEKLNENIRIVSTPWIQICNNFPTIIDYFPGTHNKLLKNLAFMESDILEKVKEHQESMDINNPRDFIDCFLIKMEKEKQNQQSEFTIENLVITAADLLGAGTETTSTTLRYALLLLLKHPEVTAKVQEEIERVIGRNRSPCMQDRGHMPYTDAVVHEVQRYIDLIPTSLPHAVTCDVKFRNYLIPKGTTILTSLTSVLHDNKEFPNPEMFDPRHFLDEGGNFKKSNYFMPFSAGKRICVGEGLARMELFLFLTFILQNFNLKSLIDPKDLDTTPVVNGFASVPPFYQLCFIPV

Cc1c(OC[C@@H](C)OS(=O)(=O)O)cn2ncnc(Oc3ccc4[nH]c(C(=O)O)cc4c3F)c12
Drug metabolism (Liver cytosol [1]): metabolite_detected
Drug metabolism (Liver cytosol [2]): metabolite_detected
Drug metabolism (Liver microsome [3]): metabolite_detected

Cc1c(OC[C@@H](C)O)cn2n[14cH]nc(Oc3ccc4[nH]c(C(=O)O)cc4c3F)c12
Drug metabolism (Liver cytosol [4]): metabolite_detected
Drug metabolism (Liver cytosol [5]): metabolite_not_detected

Cc1c(OC[C@@H](C)OS(=O)(=O)O)cn2ncnc(Oc3ccc4[nH]c(CO)cc4c3F)c12
Drug metabolism (Liver cytosol [2]): metabolite_detected
Drug metabolism (Liver microsome [3]): metabolite_detected

Cc1cc2c(F)c(Oc3n[14cH]nn4cc(OC[C@@H](C)OS(=O)(=O)O)c(C)c34)ccc2[nH]1
Drug metabolism (Liver microsome [6]): metabolite_detected
Drug metabolism (Liver microsome [7]): metabolite_not_detected
Drug metabolism (Liver microsome [8]): metabolite_detected

Cc1c(OC[C@@H](C)O)cn2ncnc(Oc3ccc4[nH]c(C(=O)O)cc4c3F)c12
Drug metabolism (Liver microsome [9]): metabolite_detected
Drug metabolism (Liver cytosol [10]): metabolite_detected
Drug metabolism (Liver cytosol [11]): metabolite_detected

Cc1c(OC[C@@H](C)O)cn2ncnc(Oc3ccc4[nH]c(CO)cc4c3F)c12
Drug metabolism (Liver microsome [12]): metabolite_detected
Drug metabolism (Cytochrome P450 2C19): metabolite_detected
Drug metabolism (Cytochrome P450 3A5): metabolite_detected
Drug metabolism (Cytochrome P450 1B1): metabolite_detected
Drug metabolism (Cytochrome P450 2D6): metabolite_detected
Drug metabolism (Cytochrome P450 2A6): metabolite_detected
Drug metabolism (Liver microsome [9]): metabolite_detected
Drug metabolism (Liver microsome [13]): metabolite_detected
Drug metabolism (Cytochrome P450 1A2): metabolite_detected
Drug metabolism (Cytochrome P450 2C9): metabolite_detected
Drug metabolism (Liver microsome [14]): metabolite_detected
Drug metabolism (Cytochrome P450 3A4): metabolite_detected
Drug metabolism (Cytochrome P450 1A1): metabolite_detected
Drug metabolism (Liver microsome [15]): metabolite_detected
Drug metabolism (Cytochrome P450 2C8): metabolite_detected
Drug metabolism (Liver microsome [16]): metabolite_detected
Drug metabolism (Liver microsome [17]): metabolite_detected
Drug metabolism (Cytochrome P450 2B6): metabolite_detected

CC(=O)COc1cn2ncnc(Oc3ccc4[nH]c(C)cc4c3F)c2c1C
Drug metabolism (Liver microsome [9]): metabolite_detected

B1: Cytochrome P450 1A2 (Homo sapiens) (protein)
chain: T2 sequence (P05177 whole entry)
Km [18]: 45 µM
Vmax [18]: 1.39e-06 µmol/min
